Source: BindingDB's records for patent US20250243194 (Adorx Therapeutics, 2025)

Legend:
Experiment in all cases: Adenosine Receptor Time-Resolved Fluorescence Resonance Energy Transfer (TRFRET) Binding Assay
[1] = target: T1, Adenosine receptor A2b (Homo sapiens, UniProt P29275)
T1 sequence (P29275 whole entry): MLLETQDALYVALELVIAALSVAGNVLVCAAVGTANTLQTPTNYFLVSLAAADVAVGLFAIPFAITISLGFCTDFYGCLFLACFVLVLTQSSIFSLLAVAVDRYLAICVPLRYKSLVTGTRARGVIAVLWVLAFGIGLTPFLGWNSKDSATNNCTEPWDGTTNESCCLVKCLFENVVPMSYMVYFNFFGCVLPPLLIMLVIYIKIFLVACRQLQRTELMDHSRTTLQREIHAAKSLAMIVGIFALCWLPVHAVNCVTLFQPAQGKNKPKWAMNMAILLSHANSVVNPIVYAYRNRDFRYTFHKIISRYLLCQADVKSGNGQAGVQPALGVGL
Experimental: (§1) All FRET binding experiments were conducted at room temperature in white 384-well plates, in assay binding buffer containing 1× LabMed (Cisbio, France), 100 μg/mL saponin, 1% DMSO and 0.02% pluronic acid. Binding of the fluorescently labelled Adenosine receptor antagonist XAC (CA200645, FRET acceptor) to terbium-labelled A1, A2a, A2b and A3 adenosine receptors (FRET donors) was detected by time-resolved FRET due to the close proximity of the donor and acceptor in a binding event. To investigate the ability of unlabelled test compounds to bind to Adenosine A1, A2a, A2b and A3 receptors, dose response curves were constructed that determined the ability of a range of concentrations to inhibit the binding of 30 nM CA200645 to the A2b receptor and 100 nM CA200645 to the A1, A2a, and A3 receptor.Serial dilution (1:3 dilutions) of test compounds in neat DMSO and transfer of a 400 nL sample of test compound into the assay plate was carried out using the Mosquito (TTP Labtech, UK). The compound samples were incubated for 2 hours at room temperature with a fixed concentration of CA200645 defined for each receptor (see above) and CHO cell membranes containing the human Adenosine A1 (0.5 μg/well), A2a (0.3 μg/well), A2b (1 μg/well) or A3 (1 μg/well) receptor in 40 μL of assay buffer. Total and non-specific binding of CA200645 was determined in the absence and presence of 10 μM XAC, respectively. Following 2 hours incubation, the level of CA200645 binding was detected on a Pherastar FSX (BMG Labtech, Germany) using standard TR-FRET settings.

[2] = target: T2, Adenosine receptor A1 (Homo sapiens, UniProt P30542)
T2 sequence (P30542 whole entry): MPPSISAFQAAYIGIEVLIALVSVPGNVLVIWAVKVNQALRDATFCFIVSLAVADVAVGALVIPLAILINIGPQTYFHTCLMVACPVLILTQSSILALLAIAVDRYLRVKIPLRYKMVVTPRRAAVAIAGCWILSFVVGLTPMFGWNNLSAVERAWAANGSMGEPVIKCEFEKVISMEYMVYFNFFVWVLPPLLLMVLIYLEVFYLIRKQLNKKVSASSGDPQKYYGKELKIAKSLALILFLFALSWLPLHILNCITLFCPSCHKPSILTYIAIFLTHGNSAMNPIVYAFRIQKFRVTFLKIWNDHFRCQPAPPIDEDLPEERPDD
Experimental: as §1

[3] = target: Adenosine receptor A2a (Homo sapiens, UniProt P29274)
Experimental: as §1

[4] = target: T3, Adenosine receptor A3 (Homo sapiens, UniProt P0DMS8)
T3 sequence (P0DMS8 whole entry): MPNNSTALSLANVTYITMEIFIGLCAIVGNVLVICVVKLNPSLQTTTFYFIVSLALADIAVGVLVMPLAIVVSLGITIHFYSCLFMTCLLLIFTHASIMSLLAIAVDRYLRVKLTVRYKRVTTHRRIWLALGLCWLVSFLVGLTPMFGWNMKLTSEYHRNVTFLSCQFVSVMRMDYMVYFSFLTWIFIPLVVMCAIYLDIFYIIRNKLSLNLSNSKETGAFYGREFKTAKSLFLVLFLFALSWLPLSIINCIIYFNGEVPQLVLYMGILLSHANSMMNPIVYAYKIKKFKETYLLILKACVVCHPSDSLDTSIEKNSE
Experimental: as §1

Chain of Adenosine receptor A2a (P29274 whole entry): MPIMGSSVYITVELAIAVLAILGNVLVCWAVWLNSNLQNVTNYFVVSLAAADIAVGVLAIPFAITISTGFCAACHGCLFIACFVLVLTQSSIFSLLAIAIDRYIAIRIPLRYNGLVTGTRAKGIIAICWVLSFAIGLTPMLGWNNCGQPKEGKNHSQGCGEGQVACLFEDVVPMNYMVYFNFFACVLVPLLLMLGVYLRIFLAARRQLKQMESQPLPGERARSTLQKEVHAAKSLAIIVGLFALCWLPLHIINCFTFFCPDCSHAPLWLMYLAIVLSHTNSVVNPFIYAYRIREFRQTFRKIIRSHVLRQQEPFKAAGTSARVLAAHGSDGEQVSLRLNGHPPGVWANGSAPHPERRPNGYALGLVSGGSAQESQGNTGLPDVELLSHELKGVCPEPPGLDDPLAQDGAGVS

| Compound | Ki [1] | Ki [2] | Ki [3] | Ki [4] |
| --- | --- | --- | --- | --- |
| Cc1ncnc2ccc(-c3sc(NC(=O)N4CCNCC4)nc3-c3cccc(C#N)c3)cc12 [US20250243194, Example 7.21] | 1.6 nM | 9 nM | 0.3 nM |  |
| Cc1ccnc2ccc(-c3sc(NC(=O)N4CC5(COC5)C4)nc3-c3cccc(C#N)c3)cc12 [US20250243194, Example 11] | 0.5 nM | 0.4 nM | 0.04 nM |  |
| COc1ncnc2ccc(-c3sc(NC(=O)N4CC5(COC5)C4)nc3-c3cccc(C#N)c3)cc12 [US20250243194, Example 12] | 0.8 nM | 0.2 nM | 0.17 nM |  |
| Cn1cc(-c2sc(NC(=O)N3CC4(COC4)C3)nc2-c2cccc(C#N)c2)c2cccnc21 [US20250243194, Example 16] | 9.8 nM | 122 nM | 5.17 nM | 2130 nM |

More lines, in order of falling Ki [1], values ahead:

| Ki [1] | Ki [2] | Ki [3] | Ki [4] | Compound |
| --- | --- | --- | --- | --- |
| 3 nM | 20 nM | 0.42 nM |  | Cc1ncnc2ccc(-c3sc(NC(=O)N4CCN(C)CC4)nc3-c3cccc(C#N)c3)cc12 [US20250243194, Example 7.22] |
| 2.5 nM | 62 nM | 0.55 nM |  | Cc1ncnc2ccc(-c3sc(NC(=O)N4CCC(N(C)C)CC4)nc3-c3cccc(C#N)c3)cc12 [US20250243194, Example 7.6] |
| 1.4 nM | 57 nM | 0.2 nM |  | Cc1ncnc2ccc(-c3sc(NC(=O)N4C[C@@H]5OCCN(C)[C@@H]5C4)nc3-c3cccc(C#N)c3)cc12 [US20250243194, Example 7.20] |
